The target of assay [1] is human factor XIa (Homo sapiens, UniProt P03951). Kind of assay: Factor XIa Assay. The format is biochemical. To be noted: human factor XIa 0.04 nM, 30 min pre-incubation at 25° C., substrate GPR-AFC, pH 7.4, 60 min incubation; read-out: FXIa IC50. Here is the method:
(§1) The effectiveness of a compound of the present invention as an inhibitor of Coagulation factor XIa can be determined using a relevant purified serine protease, and an appropriate synthetic substrate. The rate of hydrolysis of the chromogenic or fluorogenic substrate by the relevant serine protease was measured both in the absence and presence of compounds of the present invention. Assays were conducted at rt or at 37° C. […] A decrease in the rate of fluorescence change in the presence of inhibitor is indicative of enzyme inhibition. Such methods are known to one skilled in the art. The results of this assay are expressed as the half-maximal inhibitory concentrations (IC50), or the inhibitory constant, Ki.
Compounds were pre-incubated for 30 min at 25° C. with human (0.04 nM) factor XIa in 50 mM HEPES buffer with 150 mM sodium chloride, 5 mM calcium chloride, 0.1% PEG 8000, pH 7.4. factor XIa enzymatic activity was determined by addition of the substrate glycine-proline-arginine-7-amido-4-trifluoromethylcoumarin (GPR-AFC) and measurement of the fluorescence at 400/505 nm after a 60 min incubation at 25° C. The % inhibition for each data point was calculated from the data and analyzed using the log (inhibitor) vs. response four parameters equation to determine the half-maximal inhibitory concentrations (IC50). The IC50 were converted to equilibrium inhibitory constants (Ki) using the Cheng-Prusoff equation.

Assay [2] deals with T1, Human plasma kallikrein (Homo sapiens, UniProt P03952).
T1 construct: yields a heavy chain (371 amino acids) and a light chain (248 amino acids); purchased Enzyme Research Laboratories
Kind of assay: Plasma Kallikrein Assay. The following applies: purified Human plasma kallikrein 0.5 nM, substrate Acetyl-K-P-R-AFC, HEPES pH 7.4, fluorescence 405 Ex/510 Em; read-out: PKal IC50. The format is biochemical. Here is the method: as §1, with “plasma kallikrein” for “Coagulation factor XIa”
Plasma kallikrein determinations were made in 50 mM HEPES buffer at pH 7.4 containing 150 mM NaCl, 5 mM CaCl2), and 0.1% PEG 8000 (polyethylene glycol: Fisher Scientific). Determinations were made using purified Human plasma kallikrein at a final concentration of 0.5 nM (Enzyme Research Laboratories) and the synthetic substrate, Acetyl-K-P-R-AFC (Sigma #C6608) at a concentration of […].
Activity assays were performed by diluting a stock solution of substrate at least tenfold to a final concentration ≤0.2 Km into a solution containing enzyme or enzyme equilibrated with inhibitor. Times required to achieve equilibration between enzyme and inhibitor were determined in control experiments. The reactions were performed under linear progress curve conditions and fluorescence increase measured at 405 Ex/510 Em nm. Values were converted to percent inhibition of the control reaction (after subtracting 100% Inhibition value). IC50 was determined by inflection point from a four parameter logistic curve fit. Ki was calculated using the Cheng Prusoff equation, Ki=IC50/(1+([S]/Km)).

The IC50 is the concentration needed to halve the response being measured.

T1 sequence (P03952 391-638 limits assumed): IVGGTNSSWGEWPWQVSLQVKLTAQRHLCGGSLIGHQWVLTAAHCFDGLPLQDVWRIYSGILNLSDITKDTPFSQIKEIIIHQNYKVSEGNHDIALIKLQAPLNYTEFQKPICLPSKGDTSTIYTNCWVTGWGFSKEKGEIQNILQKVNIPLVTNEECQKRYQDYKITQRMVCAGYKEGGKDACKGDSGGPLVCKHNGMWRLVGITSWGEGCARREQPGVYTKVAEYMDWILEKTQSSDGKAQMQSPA
T1 sequence (P03952 20-390 partner limits assumed): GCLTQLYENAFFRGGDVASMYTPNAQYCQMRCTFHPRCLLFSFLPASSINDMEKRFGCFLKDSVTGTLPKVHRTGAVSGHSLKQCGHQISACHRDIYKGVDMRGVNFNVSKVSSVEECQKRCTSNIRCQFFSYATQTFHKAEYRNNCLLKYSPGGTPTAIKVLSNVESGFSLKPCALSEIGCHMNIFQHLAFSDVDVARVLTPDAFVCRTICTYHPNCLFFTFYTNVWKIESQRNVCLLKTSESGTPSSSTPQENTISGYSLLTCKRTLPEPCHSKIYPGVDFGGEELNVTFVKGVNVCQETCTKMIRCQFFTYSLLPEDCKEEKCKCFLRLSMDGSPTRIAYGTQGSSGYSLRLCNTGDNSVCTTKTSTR
Sequence of human factor XIa (P03951 388-625 limits assumed): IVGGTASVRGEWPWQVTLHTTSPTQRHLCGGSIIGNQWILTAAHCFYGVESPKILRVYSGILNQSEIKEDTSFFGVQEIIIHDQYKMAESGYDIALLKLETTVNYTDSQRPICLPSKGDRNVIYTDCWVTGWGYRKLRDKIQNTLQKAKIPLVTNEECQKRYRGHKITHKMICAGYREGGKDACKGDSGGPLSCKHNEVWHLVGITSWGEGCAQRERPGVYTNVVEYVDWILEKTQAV
Sequence of human factor XIa (P03951 19-387 partner limits assumed): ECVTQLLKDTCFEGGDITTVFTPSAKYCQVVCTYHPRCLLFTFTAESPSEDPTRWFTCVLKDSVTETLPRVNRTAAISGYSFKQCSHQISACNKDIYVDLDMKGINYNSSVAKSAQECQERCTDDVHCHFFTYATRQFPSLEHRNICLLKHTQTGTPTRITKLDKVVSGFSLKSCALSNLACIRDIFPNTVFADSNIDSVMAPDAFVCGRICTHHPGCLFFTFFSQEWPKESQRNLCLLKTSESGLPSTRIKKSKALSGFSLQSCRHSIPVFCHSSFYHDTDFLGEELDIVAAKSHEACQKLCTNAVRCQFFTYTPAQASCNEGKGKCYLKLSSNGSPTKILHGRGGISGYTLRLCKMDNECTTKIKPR

With `Nc1cc(-c2ccc(F)cc2)nn1CC(=O)N1CC[C@@]2(C1)OC(=O)Nc1ccc(Cl)c(F)c12` [Example 1, (R)-1′-(2-(5-Amino-3-(4-fluorophenyl)-1H-pyrazol-1-yl)acetyl)-6-chloro-5-fluorospiro[benzo[d][1,3]oxazine-4,3′-pyrrolidin]-2(1H)-one 2,2,2-trifluoroacetate], the results for the IC50 in assay [1] and in assay [2] were 0.513 µM and 0.0099 µM, respectively.
The corresponding values for `Nc1cc(-c2ccc3c(c2)OCO3)nn1CC(=O)N1CC[C@@]2(C1)OC(=O)Nc1ccc(Cl)c(F)c12` [Example 2, (R)-1′-(2-(5-Amino-3-(benzo[d][1,3]dioxol-5-y1)-1H-pyrazol-1-yl)acetyl)-6-chloro-5-fluorospiro[benzo[d][1,3]oxazine-4,3′-pyrrolidin]-2(1H)-one] are 0.653 µM and 0.008 µM.
With `CC1(c2cc(N)n(CC(=O)N3CC[C@@]4(C3)OC(=O)Nc3ccc(Cl)c(F)c34)n2)CC1` [Example 3, (R)-1′-(2-(5-Amino-3-(1-methylcyclopropyl)-1H-pyrazol-1-yl)acetyl)-6-chloro-5-fluorospiro[benzo[d][1,3]oxazine-4,3′-pyrrolidin]-2(1H)-one], the IC50 in assay [1] worked out at 0.347 µM; in assay [2], 0.0378 µM.
The like results for `Nc1cc(C2CCCC2)nn1CC(=O)N1CC[C@@]2(C1)OC(=O)Nc1ccc(Cl)c(F)c12` [Example 4, (R)-1′-(2-(5-Amino-3-cyclopenty1-1H-pyrazol-1-yl)acetyl)-6-chloro-5-fluorospiro[benzo[d][1,3]oxazine-4,3′-pyrrolidin]-2(1H)-one] were, in that order, 0.315 µM and 0.0163 µM.
The like results for `Nc1cc(C2CCOCC2)nn1CC(=O)N1CC[C@@]2(C1)OC(=O)Nc1ccc(Cl)c(F)c12` [Example 5, (R)-1′-(2-(5-Amino-3-(tetrahydro-2H-pyran-4-y1)-1H-pyrazol-1-yl)acetyl)-6-chloro-5-fluorospiro[benzo[d][1,3]oxazine-4,3′-pyrrolidin]-2(1H)-one] were, in that order, 0.685 µM and 0.0306 µM.
The like results for `COc1ccc(-c2cc(N)n(CC(=O)N3CC[C@@]4(C3)OC(=O)Nc3ccc(Cl)c(F)c34)n2)cc1` [Example 6, (R)-1′-(2-(5-Amino-3-(4-methoxyphenyl)-1H-pyrazol-1-yl)acetyl)-6-chloro-5-fluorospiro[benzo[d][1,3]oxazine-4,3′-pyrrolidin]-2(1H)-one] were, in that order, 0.904 µM and 0.0101 µM.
Regarding `Nc1cc(-c2ccc(OC(F)(F)F)cc2)nn1CC(=O)N1CC[C@@]2(C1)OC(=O)Nc1ccc(Cl)c(F)c12` [Example 7, (R)-1′-(2-(5-Amino-3-(4-(trifluoromethoxy)phenyl)-1H-pyrazol-1-yl)acetyl)-6-chloro-5-fluorospiro[benzo[d][1,3]oxazine-4,3′-pyrrolidin]-2(1H)-one], the half-inhibitory concentration (IC50) in assay [1] was determined as 4.14 µM; in assay [2] it was 0.049 µM.
For `COc1cccc(-c2cc(N)n(CC(=O)N3CC[C@@]4(C3)OC(=O)Nc3ccc(Cl)c(F)c34)n2)c1` [Example 8, (R)-1′-(2-(5-Amino-3-(3-methoxyphenyl)-1H-pyrazol-1-yl)acetyl)-6-chloro-5-fluorospiro[benzo[d][1,3]oxazine-4,3′-pyrrolidin]-2(1H)-one], the IC50 was 0.679 µM in assay [1] and 0.0118 µM in assay [2].
Take `Nc1cc(-c2cccnc2)nn1CC(=O)N1CC[C@@]2(C1)OC(=O)Nc1ccc(Cl)c(F)c12` [Example 9, (R)-1′-(2-(5-Amino-3-(pyridin-3-yl)-1H-pyrazol-1-yl)acetyl)-6-chloro-5-fluorospiro[benzo[d][1,3]oxazine-4,3′-pyrrolidin]-2(1H)-one]: the IC50 in assay [1] was determined as 0.389 µM; in assay [2], 0.0129 µM.
In the case of `Nc1cc(C2CC2)nn1CC(=O)N1CC[C@@]2(C1)OC(=O)Nc1ccc(Cl)c(F)c12` [Example 10], the IC50 came out at 0.506 µM in assay [1] and 0.0274 µM in assay [2].
The corresponding values for `Nc1cc(C2CC(F)(F)C2)nn1CC(=O)N1CC[C@@]2(C1)OC(=O)Nc1ccc(Cl)c(F)c12` [Example 11, (R)-1′-(2-(5-Amino-3-(3,3-difluorocyclobutyl)-1H-pyrazol-1-yl)acetyl)-6-chloro-5-fluorospiro[benzo[d][1,3]oxazine-4,3′-pyrrolidin]-2(1H)-one] are 0.672 µM and 0.0323 µM.
In the case of `Nc1cc(-c2cccc(C(F)(F)F)c2)nn1CC(=O)N1CC[C@@]2(C1)OC(=O)Nc1ccc(Cl)c(F)c12` [Example 12, (R)-1′-(2-(5-Amino-3-(3-(trifluoromethyl)phenyl)-1H-pyrazol-1-yl)acetyl)-6-chloro-5-fluorospiro[benzo[d][1,3]oxazine-4,3′-pyrrolidin]-2(1H)-one], the IC50 in assay [1] was 2.71 µM; in assay [2], 0.0375 µM.
The corresponding values for `Nc1c2c(nn1CC(=O)N1CC[C@@]3(C1)OC(=O)Nc1ccc(Cl)c(F)c13)CCC2` [Example 13, (R)-1′-(2-(3-Amino-5,6-dihydrocyclopenta[c]pyrazo1-2(4H)-yl)acetyl)-6-chloro-5-fluorospiro[benzo[d] [1,3]oxazine-4,3′-pyrrolidin]-2(1H)-one] are 0.277 µM and 0.0388 µM.
The corresponding values for `Nc1c2c(nn1CC(=O)N1CC[C@@]3(C1)OC(=O)Nc1ccc(Cl)c(F)c13)-c1ccccc1C2` [Example 14, (R)-1′-(2-(3-Aminoindeno[1,2-c]pyrazol-2(4H)-y1)acetyl)-6-chloro-5-fluorospiro[benzo[d] [1,3]oxazine-4,3′-pyrrolidin]-2(1H)-one] are 0.029 µM and 0.0033 µM.
With `CC1(C)CCc2c1nn(CC(=O)N1CC[C@@]3(C1)OC(=O)Nc1ccc(Cl)c(F)c13)c2N` [Example 15, (R)-1′-(2-(3-Amino-6,6-dimethyl-5,6-dihydrocyclopenta[c]pyrazo1-2(4H)-yl)acetyl)-6-chloro-5-fluorospiro[benzo[d][1,3]oxazine-4,3′-pyrrolidin]-2(1H)-one], the figures for the IC50 in assay [1] and in assay [2] were 0.1 µM and 0.0406 µM, respectively.
`Nc1cc(-c2cccc(Cl)c2)nn1CC(=O)N1CCC[C@@]2(C1)OC(=O)Nc1ccc(Cl)c(F)c12` [Example 16, (R)-1′-(2-(5-Amino-3-(3-chlorophenyl)-1H-pyrazol-1-yl)acetyl)-6-chloro-5-fluorospiro[benzo[d][1,3]oxazine-4,3′-piperidin]-2(1H)-one]: the figures for the IC50 in assay [1] and in assay [2] were 2.82 µM and 0.0204 µM, respectively.
The corresponding values for `Nc1cc(-c2ccc(F)cc2)nn1CC(=O)N1CCC[C@@]2(C1)OC(=O)Nc1ccc(Cl)c(F)c12` [Example 17, (R)-1′-(2-(5-Amino-3-(4-fluorophenyl)-1H-pyrazol-1-yl)acetyl)-6-chloro-5-fluorospiro[benzo[d][1,3]oxazine-4,3′-piperidin]-2(1H)-one] are 2.55 µM and 0.021 µM.
The like results for `Nc1c2c(nn1CC(=O)N1CCC[C@@]3(C1)OC(=O)Nc1ccc(Cl)c(F)c13)-c1ccccc1C2` [Example 18, (R)-1′-(2-(3-Aminoindeno[1,2-c]pyrazol-2(4H)-yl)acetyl)-6-chloro-5-fluorospiro[benzo[d][1,3]oxazine-4,3′-piperidin]-2(1H)-one] were, in that order, 0.088 µM and 0.0024 µM.
`Nc1c(Cl)c(-c2ccc(F)cc2F)nn1CC(=O)N1CC[C@@]2(C1)OC(=O)Nc1ccc(Cl)c(F)c12` [Example 19, (R)-1′-(2-(5-Amino-4-chloro-3-(2,4-difluorophenyl)-1H-pyrazol-1-yl)acetyl)-6-chloro-5-fluorospiro[benzo[d][1.3]oxazine-4,3′-pyrrolidin]-2(1H)-one 2,2,2-trifluoroacetate]: the IC50 in assay [1] is 0.134 µM; in assay [2] it was 0.0303 µM.
As for `Nc1c(Cl)c(-c2ccccc2)nn1CC(=O)N1CC[C@@]2(C1)OC(=O)Nc1ccc(Cl)c(F)c12` [Example 20, (R)-1′-(2-(5-Amino-4-chloro-3-phenyl-1H-pyrazol-1-yl)acetyl)-6-chloro-5-fluorospiro[benzo[d][1,3]oxazine-4,3′-pyrrolidin]-2(1H)-one], the 50% inhibitory concentration (IC50) is 0.214 µM in assay [1] and 0.0423 µM in assay [2].

Source of the values: patent US20240208994A1, “PLASMA KALLIKREIN INHIBITORS” (Merck Sharp & Dohme LLC, priority 2021, published 2024).
